This is an account of results in article PMC12584665, “In vitro and in vivo efficacy of vancomycin against Elizabethkingia species and the impact of increased vancomycin MICs” (Microbiology Spectrum, 2025).

≈ marks a conversion by molar mass, not a printed value. Read-outs that look alike come from different tables or passages of the source.

Data set [1] deals with Elizabethkingia anophelis. As to the kind of experiment: Broth microdilution (BMD) MIC. The format is cell-based. The source says:
Eighteen E. anophelis clinical isolates from the nationwide surveillance program (Taiwan Surveillance of Antimicrobial Resistance) were well characterized in our previous study ([7]) and were selected for susceptibility testing and minimum bactericidal concentration (MBC) assays. Among them, five isolates with different clonality (underlined strains in Fig. S1) were selected for the time-kill assays and in vivo experiments.
Broth microdilution, disc diffusion, Etest, and agar dilution assays were conducted following CLSI guidelines to determine vancomycin MICs ([8]). […] Criteria for Staphylococcus spp. were not adopted due to the lack of a zone diameter breakpoint. MBCs were determined following CLSI guidelines ([8]).

The subject of data set [2] is Elizabethkingia anophelis. Briefly: Galleria mellonella (wax moth) infection survival model. The data set is classed as in vivo. Conditions: 72 h. The procedure:
(§1) In vivo efficacy was assessed by wax moth (Galleria mellonella), murine pneumonia, and murine thigh infection models following the protocols of our previous study ([2]). The Animal Ethics Committee of Taiwan’s National Health Research Institutes approved the murine pneumonia and thigh infection models.
G. mellonella was reared at the National Health Research Institutes of Taiwan. Caterpillars in the final instar larval stage (weight ca. 250 mg) were used. […] A 10 µL aliquot of E. anophelis at the predetermined lethal dose was injected into the hemocoel of each caterpillar via the last left proleg. Antibiotics were administered once into another proleg at the indicated time points; vancomycin (5, 10, or 20 mg/kg, 2 h post-inoculation); other glycopeptides (teicoplanin, 10 mg/kg, 30 min post-inoculation; dalbavancin, 8.75 mg/kg, 2 h post-inoculation; oritavancin, 15 mg/kg, 1 h post-inoculation) ([11][–][13]); or daptomycin (10 mg/kg, 2 h post-inoculation) ([13]). Each treatment group contained 6–8 caterpillars. A control group injected with sterile PBS was included to monitor for trauma-related mortality. Caterpillars were incubated at 37°C, and survival was recorded twice daily for 72 h.

Data set [3] is described as follows: Serum drug levels in mice (LC-MS/MS). The data set is classed as in vivo. Conditions: single dose 50 mg/kg intraperitoneal teicoplanin vs 25 or 100 mg/kg subcutaneous vancomycin. How it is done: Fifty microliters of aliquots of murine serum was mixed with 100 µL acetonitrile. The mixture was vortexed and then centrifuged at 15,000 × g for 20 min in a Beckman Coulter Microfuge 22R Centrifuge at room temperature. The supernatant was transferred to a clean tube, and then 15 µL of the supernatant was injected onto LC-MS/MS. The chromatographic system consisted of an Agilent 1200 series LC system and an Agilent ZORBAX Eclipse XDB-C8 column (5 µm, 3.0 × 150 mm) interfaced to an MDS Sciex API3000 tandem mass spectrometer. The MS/MS ion transitions monitored were m/z 725/144 for vancomycin. A gradient HPLC method was employed for separation. Mobile phase A consisted of 10 mM ammonium acetate aqueous solution containing 0.1% formic acid and mobile phase B consisted of acetonitrile. The gradient profile was as follows (min/%B): 0.0–0.9/5, 1.0–2.0/50, 2.1–3.7/95, 3.8–5.0/5. The flow rate was set at 1.5 mL/min.

The test system of data set [4] is Elizabethkingia anophelis. Briefly: Murine pneumonia model. The data set is classed as in vivo, C57BL/6J mice. Conditions: 50 mg/kg intraperitoneal twice daily. How it is done: as §1
For the pneumonia model, a bacterial suspension was mixed with 5% mucin from porcine stomach (type 3; Sigma-Aldrich, Saint Louis, USA). Seven-week-old C57BL/6J mice were anesthetized with isoflurane for 10 min. For each strain, the inoculum corresponded to the lowest dose that caused >80% mortality in preliminary testing. This inoculum (10⁶–10⁸ cfu, depending on strain) was delivered intratracheally to induce pneumonia. Two hours thereafter, mice received either high or human-equivalent doses of subcutaneous vancomycin (100 mg/kg or 25 mg/kg, respectively) or intraperitoneal teicoplanin (50 mg/kg) ([17]) twice daily for 3 days. Each group contained eight mice, and survival was monitored for 3 days.

Data set [5] relates to Elizabethkingia anophelis. As to the kind of experiment: Murine neutropenic thigh infection model. The data set is classed as in vivo, C57BL/6J mice. Conditions: 50 mg/kg intraperitoneal, 2 h and 14 h after inoculation. The procedure: as §1
For the thigh infection model, seven-week-old C57BL/6J mice were rendered neutropenic by intraperitoneal injections of cyclophosphamide (Cytoxan; Bristol-Myers Squibb, Princeton, NJ, USA) 4 days (150 mg/kg) and 1 day (100 mg/kg) before bacterial inoculation. A 30 µL aliquot containing the E. anophelis (10^7 cfu) was injected into each of the two rear thighs. Vancomycin (25 mg/kg or 100 mg/kg, subcutaneous) or teicoplanin (50 mg/kg, intraperitoneal) was administered 2 h and 14 h after inoculation. Mice were sacrificed 24 h post-inoculation, and homogenized thigh tissue was plated in serial 10-fold dilutions on brain-heart infusion agar to determine bacterial counts. Each mouse, not each thigh, was considered an individual data point.

Where [6] appears, read: Elizabethkingia anophelis, E. anophelis clinical isolate 2008N05-106, read-out: MIC, BMD.
Setting [7] is: Elizabethkingia anophelis, E. anophelis clinical isolate 2008S01-229, read-out: MIC, BMD.
[8] abbreviates: Elizabethkingia anophelis, E. anophelis clinical isolate 2014C06-157, read-out: MIC, BMD.
The mark [9] stands for this setting: Elizabethkingia anophelis, E. anophelis clinical isolate 2016N17-576, read-out: MIC, BMD.
Where [10] appears, read: Elizabethkingia anophelis, E. anophelis clinical isolate 2018C04-213, read-out: MIC, BMD.
The mark [11] stands for this setting: Elizabethkingia anophelis, E. anophelis clinical isolate 2018C04-224, read-out: MIC, BMD.
[12] abbreviates: Elizabethkingia anophelis, E. anophelis clinical isolate 2018C07-210, read-out: MIC, BMD.
Setting [13] is: Elizabethkingia anophelis, E. anophelis clinical isolate 2018C07-234, read-out: MIC, BMD.
Setting [14] is: Elizabethkingia anophelis, E. anophelis clinical isolate 2018C08-127, read-out: MIC, BMD.
[15] abbreviates: Elizabethkingia anophelis, E. anophelis clinical isolate 2018E03-151, read-out: MIC, BMD.
Where [16] appears, read: Elizabethkingia anophelis, E. anophelis clinical isolate 2018E04-135, read-out: MIC, BMD.
[17] abbreviates: Elizabethkingia anophelis, E. anophelis clinical isolate 2018N16-057, read-out: MIC, BMD.
Setting [18] is: Elizabethkingia anophelis, E. anophelis clinical isolate 2018N17-036, read-out: MIC, BMD.
The mark [19] stands for this setting: Elizabethkingia anophelis, E. anophelis clinical isolate 2018N17-073, read-out: MIC, BMD.
[20] abbreviates: Elizabethkingia anophelis, E. anophelis clinical isolate 2018N17-153, read-out: MIC, BMD.
Where [21] appears, read: Elizabethkingia anophelis, E. anophelis clinical isolate 2018N21-226, read-out: MIC, BMD.
Setting [22] is: Elizabethkingia anophelis, E. anophelis clinical isolate 2018S09-023, read-out: MIC, BMD.
[23] abbreviates: Elizabethkingia anophelis, E. anophelis clinical isolate 2018S11-172, read-out: MIC, BMD.
Setting [24] is: E. anophelis used in the G. mellonella assays of Fig. S4, isolate and method not given.

`C[C@H]1COc2c(N3CCN(C)CC3)c(F)cc3c(=O)c(C(=O)O)cn1c23` [Levofloxacin]: the MIC in data set [1] (setting [6]) is > 8 µg/mL; in data set [1] (setting [7]) it was ≤ 1 µg/mL; in data set [1] (setting [8]), > 8 µg/mL; in data set [1] (setting [9]), > 8 µg/mL; in data set [1] (setting [10]), > 8 µg/mL; in data set [1] (setting [11]) it was > 8 µg/mL. Besides, the MIC was > 8 µg/mL in data set [1] (setting [12]); > 8 µg/mL in data set [1] (setting [13]); 2 µg/mL (≈ 5.53 µM) in data set [1] (setting [14]); 2 µg/mL (≈ 5.53 µM) in data set [1] (setting [15]); ≤ 1 µg/mL in data set [1] (setting [16]); ≤ 1 µg/mL in data set [1] (setting [17]). Besides, the MIC in data set [1] (setting [18]) is > 8 µg/mL; in data set [1] (setting [19]), > 8 µg/mL; in data set [1] (setting [20]) it was > 8 µg/mL; in data set [1] (setting [21]), ≤ 1 µg/mL; in data set [1] (setting [22]) it was ≤ 1 µg/mL; in data set [1] (setting [23]), 2 µg/mL (≈ 5.53 µM).
As to `CN(C)c1ccc(O)c2c1C[C@H]1C[C@H]3[C@H](N(C)C)C(O)=C(C(N)=O)C(=O)[C@@]3(O)C(O)=C1C2=O` [Minocycline], the MIC in data set [1] (setting [6]), in data set [1] (setting [7]), in data set [1] (setting [8]), in data set [1] (setting [9]), in data set [1] (setting [10]) and in data set [1] (setting [11]) was ≤ 2 µg/mL in each case. For the same molecule, the MIC in data set [1] (setting [12]), in data set [1] (setting [13]), in data set [1] (setting [14]), in data set [1] (setting [15]), in data set [1] (setting [16]) and in data set [1] (setting [17]) was ≤ 2 µg/mL each time. Also, the MIC in data set [1] (setting [18]), in data set [1] (setting [19]), in data set [1] (setting [20]), in data set [1] (setting [21]), in data set [1] (setting [22]) and in data set [1] (setting [23]) was ≤ 2 µg/mL in each case.
Molecule `CN[C@H]1C(=O)N[C@@H]2Cc3ccc(cc3)Oc3cc4cc(c3O[C@@H]3O[C@H](C(=O)O)[C@@H](O)[C@H](O)[C@H]3NC(=O)CCCCCCCCC(C)C)Oc3ccc(cc3Cl)[C@@H](O)[C@@H]3NC(=O)[C@H](NC(=O)[C@@H]4NC(=O)[C@@H](NC2=O)c2cc(cc(O)c2Cl)Oc2cc1ccc2O)c1ccc(O)c(c1)-c1c(O[C@H]2O[C@H](CO)[C@@H](O)[C@H](O)[C@@H]2O)cc(O)cc1[C@@H](C(=O)NCCCN(C)C)NC3=O` [dalbavancin] returned an MICs in data set [1] (setting [24]) of 64 mg/L. The “survival of infected wax moths” value in data set [2] (8.75 mg/kg once, 2 h post-inoculation) is on record as “no survival benefit”.
With `CCCCCCCCCC(=O)N[C@@H](Cc1c[nH]c2ccccc12)C(=O)N[C@H](CC(N)=O)C(=O)N[C@@H](CC(=O)O)C(=O)N[C@@H]1C(=O)NCC(=O)N[C@@H](CCCN)C(=O)N[C@@H](CC(=O)O)C(=O)N[C@H](C)C(=O)N[C@@H](CC(=O)O)C(=O)NCC(=O)N[C@H](CO)C(=O)N[C@@H]([C@H](C)CC(=O)O)C(=O)N[C@@H](CC(=O)c2ccccc2N)C(=O)O[C@@H]1C` [daptomycin], the MIC in data set [1] (E. anophelis used in the G. mellonella assays of Fig. S4, isolate and method not given, read-out: MICs) was 128 µg/mL (≈ 79 µM). In addition, the “survival of infected wax moths” value in data set [2] (10 mg/kg once, 2 h post-inoculation) is “no survival benefit”.
Turning to `CN[C@H](CC(C)C)C(=O)N[C@H]1C(=O)N[C@@H](CC(N)=O)C(=O)N[C@H]2C(=O)N[C@H]3C(=O)N[C@H](C(=O)N[C@H](C(=O)O)c4cc(O)cc(O)c4-c4cc3ccc4O)[C@H](O[C@H]3C[C@](C)(N)[C@@H](O)[C@H](C)O3)c3ccc(c(Cl)c3)Oc3cc2cc(c3O[C@@H]2O[C@H](CO)[C@@H](O)[C@H](O)[C@H]2O[C@H]2C[C@](C)(NCc3ccc(-c4ccc(Cl)cc4)cc3)[C@@H](O)[C@H](C)O2)Oc2ccc(cc2Cl)[C@H]1O` [oritavancin], the MIC in data set [1] (read-out: MICs, E. anophelis used in the G. mellonella assays of Fig. S4, isolate and method not given) turned out to be 64 µg/mL (≈ 35.7 µM). Further, the “survival of infected wax moths” value in data set [2] (15 mg/kg once, 1 h post-inoculation) is listed as “no survival benefit”.
For the molecule Teicoplanin, the “MIC, BMD” value in data set [1] (E. anophelis clinical isolate 2008N05-106), in data set [1] (E. anophelis clinical isolate 2008S01-229), in data set [1] (E. anophelis clinical isolate 2014C06-157), in data set [1] (E. anophelis clinical isolate 2016N17-576), in data set [1] (E. anophelis clinical isolate 2018C04-213) and in data set [1] (E. anophelis clinical isolate 2018C04-224) was 128 µg/mL in each case. Also, the “MIC, BMD” value in data set [1] (E. anophelis clinical isolate 2018C07-210) worked out at 256 µg/mL; in data set [1] (E. anophelis clinical isolate 2018C07-234), 256 µg/mL; in data set [1] (E. anophelis clinical isolate 2018C08-127) it was 128 µg/mL; in data set [1] (E. anophelis clinical isolate 2018E03-151), 128 µg/mL; in data set [1] (E. anophelis clinical isolate 2018E04-135) it was 64 µg/mL; in data set [1] (E. anophelis clinical isolate 2018N16-057), 128 µg/mL. In addition, the “MIC, BMD” value in data set [1] (E. anophelis clinical isolate 2018N17-036) worked out at 128 µg/mL; in data set [1] (E. anophelis clinical isolate 2018N17-073), 128 µg/mL; in data set [1] (E. anophelis clinical isolate 2018N17-153), 128 µg/mL; in data set [1] (E. anophelis clinical isolate 2018N21-226) it was 64 µg/mL; in data set [1] (E. anophelis clinical isolate 2018S09-023) it was 64 µg/mL; in data set [1] (E. anophelis clinical isolate 2018S11-172), 64 µg/mL. Also, the MICs in data set [1] (setting [24]) is listed as 128 mg/L. In addition, in data set [3], the “concentration in murine serum relative to vancomycin” value is given as “much higher than that of vancomycin”. For the same molecule, the “survival of infected mice” value in data set [4] was “little effect”. For the same molecule, the “reduction of bacterial loads in thigh” value in data set [5] is “little effect”. For the same molecule, in data set [2] (10 mg/kg once, 30 min post-inoculation), the “survival of infected wax moths” value was “no survival benefit”.
